Assay results published in patent publication US7534763B2 (Bristol-Myers Squibb Company, priority 2004, dated 2009).
Read-outs that look alike come from different tables or passages of the source. Values belong to the compound of their own block, whether it stands above or below them. Where a SMILES comes first, the peptide text is derived from it. [ ]: non-standard residue; d: D form. The star is where a group is joined. ξ: configuration not given here. Ala(6-(2-MePh)pyridin-3-yl) = Cc1ccccc1-c1ccc(C[C@H](N)C(=O)O)cn1; Phe(4-(2-Et-4-HO-Ph)) = CCc1cc(O)ccc1-c1ccc(C[C@H](N)C(=O)O)cc1; Bip(2'-Et-4'-OMe) = CCc1cc(OC)ccc1-c1ccc(C[C@H](N)C(=O)O)cc1; αMePhe(2-F) = C[C@](N)(Cc1ccccc1F)C(=O)O; ξαMePhe(2-F) = CC(N)(Cc1ccccc1F)C(=O)O; ξαMeP = CC1(C(=O)O)CCCN1; Aib = CC(C)(N)C(=O)O; Moc = COC(=O)*

Experiments:
[1] = Dog pharmacokinetic study (iv and sc, solution vehicles); format: in vivo; conditions: for half-life: read-out: t½ (converted)
Procedure: The pharmacokinetic parameters of the compound of SEQ ID NO:9 were determined in male beagle dogs (n=4, 14±1 kg). Following an overnight fast, each animal received the compound of SEQ ID NO:9 either as an intravenous bolus via femoral vein (67 μg/kg) or by subcutaneous injection given at near the shoulder blades (67 μg/kg). Each animal received both intravenous and subcutaneous doses with a one-week washout between doses following a crossover design. […] Serial blood samples were collected in EDTA-containing microcentrifuge tubes at predose, 0.083, 0.25, 0.5, 0.75, 1, 2, 4, 6, 8, 24, and 30 hours post-dose after intravenous administration; at predose, 0.25, 0.5, 0.75, 1, 2, 4, 6, 8, 24, and 30 hours post-dose after subcutaneous administration. Approximately 0.3 mL of blood was collected at each time point. Blood samples were immediately centrifuged at 4° C. The obtained plasma was frozen with dry ice and stored at −20° C. Plasma drug levels were determined using the LC-MS/MS assay described above.
Plasma samples from in vivo dog study were prepared for analysis by precipitating plasma proteins with two volumes of acetonitrile containing an internal standard. The samples were vortex mixed and removed the precipitated proteins by centrifugation. The resulting supernatants were transferred to a 96-well plate and 10 μL were injected for analysis. Samples were prepared with the Packard Multiprobe II and Quadra 96 Liquid Handling System.
The HPLC system consisted of two Shimadzu LC10AD pumps (Columbia, Md.), a CTC PAL autosampler (Leap Technologies, Switzerland). The column used was a YMC Hydrosphere C18 (2.0×50 mm, 3 μm) (YMC, Inc., Milford, Ma.). The column temperature was maintained at 50° C. and the flow rate was 0.3 mL/minute. The mobile phase A consisted of 10 mM ammonium formate and 0.1% formic acid in water and mobile phase B consisted of 0.1% formic acid in acetonitrile. The initial mobile phase composition was 5% B, and remained at 5% B for one minute to equilibrate the column. The composition was ramped to 95% B over two minutes and held there for one additional minute. The mobile phase was then returned to initial conditions in one minute. Total analysis time was five minutes. A switching valve was used. The eluents between 0-1 minute were diverted to the waste.
The HPLC was interfaced to a Sciex API 4000 mass spectrometer, (Applied Biosystems, Foster City, Calif.) and was equipped with a TurboIonspray ionization source. Ultra high purity nitrogen was used as the nebulizing and turbo gas. The temperature of turbo gas was set at 300° C. and the interface heater was set at 60° C. Data acquisition utilized selected reaction monitoring (SRM). Ions representing the (M+2H)^2+ species for the compound of SEQ ID NO:9, and (M+2H)^2+ for BMS-501143 (IS) were selected in Q1 and were collisionally dissociated with high purity nitrogen at a pressure of 3.5×10^−3torr to form specific product ions which were subsequently monitored by Q3.
The standard curve concentrations, ranging from 1 to 1000 nM and from 4 to 5000 nM, were used for the in vivo samples obtained from low and high doses, respectively. The curves were fitted with a quadratic regression weighted by reciprocal […]. Standards were analyzed in duplicate. Quality control (QC) samples, prepared in blank matrix at the same concentrations as the standard were also analyzed in each analytical set. For the compound of SEQ ID NO:9, the calculated concentrations of more than 80% of the QCs were within 20% of nominal concentration, indicating acceptable assay performance.
The compound of SEQ ID NO:9 plasma concentration vs. time data were analyzed by noncompartmental methods using the […]™ software program. The Cmax and Tmax values were recorded directly from experimental observations. The AUC0-n and AUCtot values were calculated using a combination of linear and log trapezoidal summations. […]

[2] = Exposure during ipGTT in ob/ob mice; format: in vivo; conditions: sc
Procedure: (§1) Peptides were dissolved in an appropriate vehicle at a concentration in nmol/ml equivalent to the dose that was to be administered in nmol/kg so that each mouse would receive the same volume/weight of dosing solution. Male C57BL/6J-ob/ob mice (10 weeks old) were randomized into groups of 6 mice per group based on fed plasma glucose and body weight. After an overnight fast, mice were weighed and placed in the experimental lab. After 30 min in the environment, the mice were bled via tail tip at −30 min and immediately injected subcutaneously (sc) with vehicle or the peptide dissolved in vehicle (0.1 ml solution/100 g body weight). At time 0 the mice were bled and then injected intraperitoneally with 50% glucose (2 g/kg) to initiate the intraperitoneal glucose tolerance test (ipGTT). The mice were bled 30, 60, 120 and 180 min after the glucose injection. Blood samples were drawn into potassium EDTA, placed on ice during the study and subsequently centrifuged for 10 min at 3000 rpm at 4° C. Plasma samples were diluted 11-fold for glucose analysis in the Cobas System. Another 5 μl plasma sample was diluted 5-fold with 20 μl of Sample Diluent (Insulin ELISA assay kit, Crystal Chem Inc.) and stored at −20° C. for subsequent analysis using the Ultra Sensitive Mouse Insulin ELISA kit (Crystal Chem Inc.).

ob/ob mice = test: intraperitoneal glucose tolerance test (ipGTT) after sc injection in ob/ob mice (plasma glucose, insulin); format: in vivo; conditions: for effect on postprandial plasma glucose (in words): ipGTT 0-180 or 210 min; for % AUC Reduction in Plasma Glucose in an IP Glucose Tolerance Test after SC Injection of Compound: 10 nmol/kg, vs vehicle group; for Potency in ob/ob mice, ED50: sc injection, ipGTT, plasma glucose AUC
Procedure: as §1

[3] = Solubility of protamine/Compound of SEQ ID NO:9 adduct and in protamine solution; format: physicochemical; conditions: MeOH
Description: Thus, the administration of the protamine/Compound of SEQ ID NO:9 adduct may need a suitable suspending agent; or it maybe injected as dry powder.
Therefore, suspension of the compound of SEQ ID NO:9 in the presence of protamine could still provide extended release effect without using pre-formed protamine/SEQ ID NO:9 adduct.

[4] = Solubility of compound of SEQ ID NO:9 in the presence of Zn(II) / Zn adduct; format: physicochemical; conditions: pH 6.8, 50 mM phosphate buffer
Procedure: Once the Zn/Compound of SEQ ID NO:9 adduct was formed, formulation development studies were conducted in order to evaluate the solubility of the compound of SEQ ID NO:9 in the presence of Zn(II). An excess amount of the compound of SEQ ID NO:9 was suspended in pH 6.8, 50 mM phosphate buffer. The suspension was then placed on an orbital shaker (Model, 100 RPM) at ambient temperature for 12 hours. The suspension was then centrifuged (Model, speed) and the saturated the clear supernatant of the compound of SEQ ID NO:9 was collected into 10 ml centrifuge tubes. A predetermined amount of zinc acetate solution (50 mM, pH 6.8 phosphate buffer) was added into the saturated solution and then precipitated. The concentration of the compound of SEQ ID NO:9 in solution was obtained by centrifuging the suspension and analyzing the clear supernatants by HPLC.
To confirm that the Zn/Compound of SEQ ID NO:9 binding is reversible, the Zn/Compound of SEQ ID NO:9 adduct was suspended in pH 6.8, 50 mM phosphate buffer. A strong chelating agent for Zn(II), EDTA, was added into the suspension in excess amount. The Zn/Compound of SEQ ID NO:9 suspension with and without EDTA was centrifuged and the supernatants were injected into HPLC.

[5] = beagle, plasma, 67 ug/kg, dog, intravenous 67 μg/kg, Tables 6A-6C (6A vehicle 0.2 M Tris, pH 8.0)
[6] = beagle, plasma, sc, 67 ug/kg, dog, subcutaneous 67 μg/kg, Tables 6A-6C (vehicle 0.2 M Tris, pH 8.0)
[7] = male, beagle, plasma, sc, 67 ug/kg, dog, subcutaneous 67 μg/kg, propylene glycol:phosphate buffer (50:50)

MRT [1, 5]: 4.9 ± 0.7 h | AUC ([1]; beagle, plasma, 67 ug/kg, dog, intravenous 67 μg/kg, Tables 6A-6C (6A vehicle 0.2 M Tris, pH 8.0), read-out: AUCtot): 1.39 ± 0.227 µM·h | clearance ([1]; beagle, plasma, 67 ug/kg, dog, intravenous 67 μg/kg, Tables 6A-6C (6A vehicle 0.2 M Tris, pH 8.0), read-out: CLp): 0.51 ± 0.08 mL/min/kg | half-life [1, 5]: 4.4 ± 0.4 h | Cmax [1, 6]: 279 ± 82 nM | MRT [1, 6]: 5.2 ± 1.5 h | Tmax [1, 6]: 1.4 ± 0.7 h | AUC ([1]; beagle, plasma, sc, 67 ug/kg, dog, subcutaneous 67 μg/kg, Tables 6A-6C (vehicle 0.2 M Tris, pH 8.0), read-out: AUCtot): 1.47 ± 0.563 µM·h | half-life [1, 6]: 3.9 ± 1.3 h | bioavailability ([1]; beagle, plasma, dog, subcutaneous vs intravenous 67 μg/kg, Tables 6A-6C (vehicle 0.2 M Tris, pH 8.0)): 110 ± 49% | Exposure/dose during ipGTT in ob/ob mice [2]: 11 nM * h/nmol/kg
Compound: CCc1cc(O)ccc1-c1ccc(C[C@H](NC(=O)[C@H](CC(=O)O)NC(=O)[C@H](CO)NC(=O)[C@@H](NC(=O)C(C)(Cc2ccccc2F)NC(=O)[C@@H](NC(=O)CNC(=O)[C@H](CCC(=O)O)NC(=O)C2(C)CCCN2C(=O)[C@H](Cc2c[nH]cn2)NC(=O)OC)[C@@H](C)O)[C@@H](C)O)C(=O)N[C@@H](Cc2ccc(-c3ccccc3C)nc2)C(N)=O)cc1 (stereo partly drawn) [SEQ ID NO: 158] (Moc-H[ξαMeP]EGT[ξαMePhe(2-F)]TSD[Phe(4-(2-Et-4-HO-Ph))][Ala(6-(2-MePh)pyridin-3-yl)]-NH2)
effect on postprandial plasma glucose (in words) (ob/ob mice; ob/ob mice, sc): statistically significant decrease

AUC ([1]; male, beagle, dog, plasma, sc, 67 ug/kg, Table II, vehicle propylene glycol/pH 7.4 phosphate buffer (1:1), read-out: Exposure in dogs (sc@67 μg/kg)): 4.02 µM·h | Exposure/dose during ipGTT in ob/ob mice [2]: 4.4 nM * h/nmol/kg
Compound: CCc1cc(OC)ccc1-c1ccc(C[C@H](NC(=O)[C@H](CC(=O)O)NC(=O)[C@H](CO)NC(=O)[C@@H](NC(=O)C(C)(Cc2ccccc2F)NC(=O)[C@@H](NC(=O)CNC(=O)[C@H](CCC(=O)O)NC(=O)C2(C)CCCN2C(=O)[C@@H](N)Cc2c[nH]cn2)[C@@H](C)O)[C@@H](C)O)C(=O)N[C@@H](Cc2ccc(-c3ccccc3C)nc2)C(N)=O)cc1 (stereo partly drawn) [SEQ ID NO: 118] (H-H[ξαMeP]EGT[ξαMePhe(2-F)]TSD[Bip(2'-Et-4'-OMe)][Ala(6-(2-MePh)pyridin-3-yl)]-NH2)
% AUC Reduction in Plasma Glucose in an IP Glucose Tolerance Test after SC Injection of Compound (ob/ob mice; ob/ob mice): −70% (p < 0.001) | plasma glucose AUC decrease (ob/ob mice; ob/ob mice, sc, 30 nmol/kg): 81% | effect on postprandial plasma glucose (in words) (ob/ob mice; ob/ob mice, sc): statistically significant decrease | Potency in ob/ob mice, ED50 (ob/ob mice): 2.5 nmol/kg

solubility [3]: > 50000 µg/mL | Exposure in dogs (sc@67 μg/kg) ([1]; Table I, vehicle 0.2 M Tris buffer (pH 8.0)): 0.452 µM·h | Vss relative to extracellular fluid ([1]; dog, iv, extracellular fluid 0.14 L/kg): 71 % of extracellular fluid | systemic clearance as % of liver blood flow ([1]; dog, iv, liver blood flow 31 mL/min/kg): 3.2 % of liver blood flow | Vss relative to vascular fluid ([1]; dog, iv, vascular fluid 0.05 L/kg): 2 times of vascular fluid | clearance ([1]; male, beagle, blood, 67 ug/kg, dog, intravenous 67 μg/kg, propylene glycol:phosphate buffer (50:50), read-out: CLB (systemic blood clearance)): 0.9 ± 0.2 mL/min/kg | MRT ([1]; male, beagle, plasma, 67 ug/kg, dog, intravenous 67 μg/kg, propylene glycol:phosphate buffer (50:50)): 3 ± 1 h | clearance ([1]; male, beagle, plasma, 67 ug/kg, dog, intravenous 67 μg/kg, propylene glycol:phosphate buffer (50:50), read-out: CLp): 0.6 ± 0.1 mL/min/kg | Vd ([1]; male, beagle, plasma, 67 ug/kg, dog, intravenous 67 μg/kg, propylene glycol:phosphate buffer (50:50), read-out: VSS): 0.1 ± 0.03 L/kg | Cmax [1, 7]: 90 ± 29 nM | Tmax [1, 7]: 5 ± 1 h | Exposure/dose during ipGTT in ob/ob mice [2]: 18 nM * h/nmol/kg | solubility thermodynamic ([4]; aqueous buffer, 25° C., excess EDTA): 18 µg/mL
Compound: CCc1cc(OC)ccc1-c1ccc(C[C@H](NC(=O)[C@H](CC(=O)O)NC(=O)[C@H](CO)NC(=O)[C@@H](NC(=O)[C@](C)(Cc2ccccc2F)NC(=O)[C@@H](NC(=O)CNC(=O)[C@H](CCC(=O)O)NC(=O)C(C)(C)NC(=O)[C@@H](N)Cc2c[nH]cn2)[C@@H](C)O)[C@@H](C)O)C(=O)N[C@@H](Cc2ccc(-c3ccccc3C)nc2)C(N)=O)cc1 [SEQ ID NO: 9] (H-H[Aib]EGT[αMePhe(2-F)]TSD[Bip(2'-Et-4'-OMe)][Ala(6-(2-MePh)pyridin-3-yl)]-NH2)
% AUC Reduction in Plasma Glucose in an IP Glucose Tolerance Test after SC Injection of Compound (ob/ob mice; ob/ob mice): −68% (p < 0.0001) | effect on postprandial plasma glucose (in words) (ob/ob mice; ob/ob mice, sc): statistically significant decrease | Potency in ob/ob mice, ED50 (ob/ob mice): 5 nmol/kg | Potency in ob/ob mice, ED50 (ob/ob mice; listed as 9): ED50 = 5 nmoles/kg | solubility in the presence of Zn(II) / of the Zn adduct (in words) [4]: continued to decrease until below the detection limit of HPLC
